Entries after “also recorded” stand apart in the source; their conditions may differ.
Columns and labels:
Bcl-xL protein = Bcl-xL protein (Homo sapiens, UniProt Q07817)
BRD4-BD1 protein = BRD4-BD1 protein (Homo sapiens, UniProt O60885); settings: 1 M LiCl, pH 7.5

Bcl-xL protein, sequence (Q07817 with tags, fused parts or gaps DEL45-84): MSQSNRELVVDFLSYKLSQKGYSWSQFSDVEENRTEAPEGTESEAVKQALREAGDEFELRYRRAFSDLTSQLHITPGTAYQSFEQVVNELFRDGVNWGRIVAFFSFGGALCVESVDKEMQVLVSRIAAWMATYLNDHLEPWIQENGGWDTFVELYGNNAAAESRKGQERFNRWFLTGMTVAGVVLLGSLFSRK

Compound	current noise (IN) signal of Bcl-xL on individual treatment (Bcl-xL protein; FIG. 17A)	change in pattern of ionic current / current blockade of Bcl-xL on addition of ligand (Bcl-xL protein; ligand added individually to Bcl-xL in cis compartment)	nanopore current blockade signal of BRD4-BD1 with ligand (BRD4-BD1 protein)
CN(C)CC[C@H](CSc1ccccc1)Nc1ccc(S(=O)(=O)NC(=O)c2ccc(N3CCN(Cc4ccccc4-c4ccc(Cl)cc4)CC3)cc2)cc1[N+](=O)[O-] [ABT-737]	specifically increased	change in pattern; also recorded: the pattern of ionic current changed significantly	–
CCOc1cc(N2CCC(O)CC2)ccc1Nc1ncc2c(n1)N(C)c1ccccc1C(=O)N2C [XMD8-92]	–	–	characteristic nanopore current blockade patterns were observed

Source: patent US20260168983A1, “YaxAB NANOPORE, NANOPORE SYSTEM COMPRISING SAME AND APPLICATIONS THEREOF” (KOREA RESEARCH INSTITUTE OF BIOSCIENCE AND BIOTECHNOLOGY, priority 2022, published 2026)
